From patent publication US6881728B1, “14-β, 17-α-hydroxymethylandrostane derivatives as androgens” (Akzo Nobel N.V., priority 1999, dated 2005)

Target: T1, human androgen receptor (Homo sapiens, UniProt P10275)
T1 construct: host or cells: MCF-7 cytosol (endogenous) or CHO cells transfected with hAR
T1 sequence (P10275 1-920): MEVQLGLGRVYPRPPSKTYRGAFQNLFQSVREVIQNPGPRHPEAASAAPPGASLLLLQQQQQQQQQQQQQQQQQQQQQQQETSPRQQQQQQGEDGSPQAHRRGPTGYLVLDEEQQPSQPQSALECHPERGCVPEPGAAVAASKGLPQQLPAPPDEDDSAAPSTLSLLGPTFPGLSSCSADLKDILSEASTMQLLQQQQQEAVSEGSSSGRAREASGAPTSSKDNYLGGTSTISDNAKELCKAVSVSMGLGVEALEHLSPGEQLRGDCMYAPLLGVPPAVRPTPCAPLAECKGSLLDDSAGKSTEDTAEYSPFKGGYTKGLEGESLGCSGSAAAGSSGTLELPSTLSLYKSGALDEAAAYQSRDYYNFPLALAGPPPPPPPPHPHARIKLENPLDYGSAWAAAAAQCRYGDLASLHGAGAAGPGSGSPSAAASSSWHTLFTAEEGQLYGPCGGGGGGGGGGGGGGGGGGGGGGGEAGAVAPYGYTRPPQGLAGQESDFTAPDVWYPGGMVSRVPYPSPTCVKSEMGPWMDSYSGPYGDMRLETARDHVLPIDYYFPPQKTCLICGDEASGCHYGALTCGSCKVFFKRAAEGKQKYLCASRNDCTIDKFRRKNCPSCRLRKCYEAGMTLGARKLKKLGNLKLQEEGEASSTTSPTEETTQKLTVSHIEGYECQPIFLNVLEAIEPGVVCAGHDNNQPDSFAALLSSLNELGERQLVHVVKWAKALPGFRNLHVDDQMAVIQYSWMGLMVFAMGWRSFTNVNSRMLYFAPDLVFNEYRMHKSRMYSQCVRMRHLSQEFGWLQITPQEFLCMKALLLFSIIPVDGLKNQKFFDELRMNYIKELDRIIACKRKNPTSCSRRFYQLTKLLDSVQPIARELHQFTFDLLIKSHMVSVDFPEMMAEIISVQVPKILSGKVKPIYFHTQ
Assay: androgenic activity rating (procedures described above; which one underlies the rating is not stated)
Design: key: +: androgenic activity found; ++: high androgenic activity; +++: excellent androgenic activity
Protocol: Androgenic activity can be measured in various ways. Thus, the potency of androgens can be determined in vitro using the cytoplasmic androgen receptor from human breast tumor cells (MCF-7 cell line); see Bergink, E. W. et al, Comparison of the receptor binding properties of nandrolone and testosterone under in vitro and in vivo conditions, J. Steroid Biochem. 22, 831-836 (1985). It is also possible to use Chinese hamster ovary (CHO) cells transfected with the human androgen receptor (incubation time 16 h, temperature 4° C.) and compared with the affinity of 5α-dihydrotestosterone [according to the procedure described by Bergink, E. W. et al, J. Steroid Biochem. 12, 1563-1570 (1983)]. The transactivative androgen activity of the compounds of the invention can be measured, e.g. in Chinese hamster ovary cells (CHO) transfected with the human androgen receptor (hAR), in combination with a mouse mammary tumor virus (MMTV), and luciferase […] (incubation time 16 h, temperature 37° C.) and compared with the activity of 5α-dihydrotestosterone [according to the procedure described by Schoonen, W. G. E. J. et al, Analyt. Biochem. 261, 222-224 (1998)]. For the in vivo potency determination of androgens the classical Hershberger test can be used. In this test the androgenic (increase in prostate weight) and anabolic activities [increase of the musculus levator ani (MLA)] of a compound are tested in immature castrated rats after daily administration for 7 days; see Hershberger, L. G. et al, Myotrophic activity of 19-Nortestosterone and other steroids determined by modified levator ani muscle method, Proceedings of the society for experimental biology and medicine 83, 175-180 (1953). Additionally, the effect of an androgenic compound on LH suppression can be tested in mature castrated rats according to Kumar, N. et al, The biological activity of 7alpha-methyl-19-nortestosterone is not amplified in male reproductive tract as is that of testosterone, Endocrinology 130, 3677-3683 (1992).
A plurality of compounds according to the invention were tested for androgenic activity (the procedures for which have been described above) and rated in the Table below according to the following scheme: • + androgenic activity found; • ++ high androgenic activity; • +++ excellent androgenic activity; • nd no data available

SMILES	Rating (androgenic activity)
C[C@]12CC[C@H]3[C@@H](CCC4=CC(=O)CC[C@@H]43)[C@H]1CC[C@H]2CO [Example 1, (14β,17α)-17-(Hydroxymethyl)estr-4-en-3-one]	+++
CC(=O)OC[C@@H]1CC[C@@H]2[C@@H]3CCC4=CC(=O)CC[C@]4(C)[C@H]3CC[C@]12C [Example 22a, (14β,17α)-17-[(Acetyloxy)methyl]androst-4-en-3-one]	+
C[C@]12CC[C@H]3[C@@H](CCC4=CC(=O)CC[C@@]43C)[C@H]1CC[C@H]2CO [Example 22b, (14β,17α)-17-(Hydroxymethyl)androst-4-en-3-one]	+
C[C@@H]1C[C@@H](CO)[C@@]2(C)CC[C@H]3[C@@H](CCC4=CC(=O)CC[C@@H]43)[C@@H]12 [Example 23, (14β,15β,17α)-17-(Hydroxymethyl)-15-methylestr-4-en-3-one]	+
CC(O)C1CCC2C3CCC4=CC(=O)CCC4C3CCC12C [Example 24a, (14β,17α,20S)-20-Hydroxy-19-norpregn-4-en-3-one]	++
CC(O)C1CCC2C3CCC4=CC(=O)CCC4C3CCC12C [Example 24b, (14β,17α,20R)-20-Hydroxy-19-norpregn-4-en-3-one]	+
CC[C@H](O)[C@@H]1CC[C@@H]2[C@@H]3CCC4=CC(=O)CC[C@@H]4[C@H]3CC[C@@]21C [Example 25a]	++
CCC(O)[C@@H]1CC[C@@H]2[C@@H]3CCC4=CC(=O)CC[C@@H]4[C@H]3CC[C@@]21C (stereo partly drawn) [Example 25b, [14β,17α(R)]-17-(1-Hydroxypropyl)estr-4-en-3-one]	+
CCC[C@H](O)[C@@H]1CC[C@@H]2[C@@H]3CCC4=CC(=O)CC[C@@H]4[C@H]3CC[C@@]21C [Example 25c, (14β,17α,20S)-20-Hydroxy-19,21-dinorchol-4-en-3-one]	+
CC(O)C1CCC2C3CCC4=CC(=O)CCC4=C3CCC12C [Example 27a, (14β,17α,20S)-20-Hydroxy-19-norpregna-4,9-dien-3-one]	++
CC(O)C1CCC2C3CCC4=CC(=O)CCC4=C3CCC12C [Example 27b, (14β,17α,20R)-20-Hydroxy-19-norpregna-4,9-dien-3-one]	+
CCC1CC2(C)C(C(C)O)CCC2C2CCC3=C(CCC(=O)C3)C12 [Example 28a, (11β,14β,17α,20S)-11-Ethyl-20-hydroxy-19-norpregn-5(10)-en-3-one]	+
CCC1CC2(C)C(C(C)O)CCC2C2CCC3=CC(=O)CCC3C12 [Example 29a, (11β,14β,17α,20S)-11-Ethyl-20-hydroxy-19-norpregn-4-en-3-one]	+
C=CC1CC2(C)C(C(C)O)CCC2C2CCC3=CC(=O)CCC3=C12 [Example 30, (11β,14β,17α,20S)-11-Ethenyl-20-hydroxy-19-norpregna-4,9-dien-3-one]	+
CCC12CCC3C4CCC(=O)C=C4CCC3C1CCC2C(C)O [Example 32a, (14β,17α,20S)-13-Ethyl-20-hydroxy-18,19-dinorpregn-4-en-3-one]	+
CC(=O)OC[C@@H]1CC[C@@H]2[C@H]3[C@H](CC[C@]12C)[C@H]1CCC(=O)C=C1C[C@H]3C [Example 33a, (7α,14β,17α)-17-[(Acetyloxy)methyl]-7-methylestr-4-en-3-one]	+
CCCCCCCCCCC(=O)OC[C@@H]1CC[C@@H]2[C@H]3[C@H](CC[C@]12C)[C@H]1CCC(=O)C=C1C[C@H]3C [Example 33c, (7α,14β,17α)-7-Methyl-17-[[(1-oxoundecyl)oxy]methyl]estr-4-en-3-one]	+
C[C@@H]1CC2=C[C@@H](O)CC[C@@H]2[C@H]2CC[C@]3(C)[C@H](CO)CC[C@@H]3[C@@H]21 [Example 34, (3β,7α,14β,17α)-17-(Hydroxymethyl)-7-methylestr-4-en-3-ol]	++
C[C@@H]1CC2=C/C(=N/O)CC[C@@H]2[C@H]2CC[C@]3(C)[C@H](CO)CC[C@@H]3[C@@H]21 [Example 36a, (3E,7α,14β,17α)-3-(Hydroxyimino)-7-methylestr-4-ene-17-methanol]	+
C[C@@H]1CC2=CCCC[C@@H]2[C@H]2CC[C@]3(C)[C@H](CO)CC[C@@H]3[C@@H]21 [Example 37, (7α,14β,17α)-7-Methylestr4-ene-17-methanol]	+

Tested on: not given
Assay: not given

SMILES	melting point [°C]
C[C@]12CC[C@H]3[C@@H](CCC4=CC(=O)CC[C@@H]43)[C@H]1CC[C@H]2CO [Example 1, (14β,17α)-17-(Hydroxymethyl)estr-4-en-3-one]	115 to 118
CC(=O)OC[C@@H]1CC[C@@H]2[C@@H]3CCC4=CC(=O)CC[C@]4(C)[C@H]3CC[C@]12C [Example 22a, (14β,17α)-17-[(Acetyloxy)methyl]androst-4-en-3-one]	141 to 142
